Patent publication US8501992B2, “Hydroxyphenyl sulfonamides as antiapoptotic bcl inhibitors” (Bristol-Myers Squibb Company, priority 2008, dated 2013)

Experiments:
Type in all cases: binding
Bcl-b = biological target: T1, Bcl-b (Homo sapiens, UniProt Q9HD36); assay: Bclb/Bim fluorescence polarization assay (FPA); details: BIM BH3 peptide 5 nM, Bcl-b 40 nM, Ki calculated from FPA data
T1 construct: without their C-terminal transmembrane domain; GST; made in house
T1 sequence (Q9HD36 1-182 limits assumed): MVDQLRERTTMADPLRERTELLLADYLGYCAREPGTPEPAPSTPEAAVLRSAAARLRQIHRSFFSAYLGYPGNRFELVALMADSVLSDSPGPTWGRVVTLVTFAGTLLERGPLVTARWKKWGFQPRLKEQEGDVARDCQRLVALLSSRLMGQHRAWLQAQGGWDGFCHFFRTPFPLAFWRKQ
Description: (§1) Compounds were profiled for their ability to disrupt in vitro binding interactions in fluorescence polarization assays (FPAs) using synthetic fluorochrome-labeled Bcl homology 3 (BH3) peptides derived from BIM [(FAM)-Ahx-[…]-NH2 (SEQ ID NO: 1) (GenBank Accession No. O43521)] or BAK [Ac-GQVGRQLAIIGE-LYS(FAM)-INR-NH2 (SEQ ID NO:2) (GenBank Accession No. Q16611) amino acid sequences and four bacterial recombinant proteins [Bcl-b (GenBank Accession No. Q9HD36), Bcl-2 (GenBank Accession No. P10415), Bcl-Xl (GenBank Accession No. Q07817), Mcl-1 (GenBank Accession No. Q07820)] without their C-terminal transmembrane domain. Proteins were purified from bacterial lysates using their glutathione S-transferase (GST)-tag (Bcl-b, Bcl-2, Mcl-1) or His6-tag (Bcl-Xl) and following one-step affinity chromatography procedures. Dissociation constants (Kd) for peptide binding protein were determined by fluorescence polarization in FPAs measuring BIM BH3 peptide binding Bcl-b, Mcl-1 or Bcl-2 protein or BAK BH3 peptide binding Bcl-Xl protein. The Kd values were generated by fitting the experimental data using a sigmoidal dose-response nonlinear regression model.
(§2) Compound inhibitory concentration values, IC50 (50% reduction in fluorescence polarization), were determined using fluorochrome-labeled BH3 peptides and recombinant Bcl proteins in fluorescence polarization assays (FPAs). Compounds diluted in DMSO (0.5 ul) were transferred (in duplicate) to individual wells of a 384-well plate. The fluorochrome-labeled peptide was added followed by recombinant protein addition. Each binding FPA reaction (50 ul) contained BIM BH3 peptide (5 nM) or BAK BH3 peptide (1.5 nM) and Bcl-b (40 nM), Mcl-1 (28 nM), Bcl-2 (11 nM) or Bcl-Xl. (5 nM) protein suspended in assay buffer [20 mM sodium phosphate, pH 7.4, 1 mM EDTA, 50 mM NaCl., 0.05% Pluronic F68]. Reaction mixtures were incubated at ambient temperature for 60 minutes prior to measuring polarization (mP) using an Analyst (LJL, Molecular Devices, Sunnyvale, Calif.) programmed to detect an emission wavelength of 530 nm after excitation (excitation wavelength=485 nm).
(§3) Competitive compound inhibition constants (Ki) were calculated using FPA experimental data and a mathematical equation, Ki=[I]50/([L]50/Kd+[P]0/Kd+1), where [I]50 denotes free inhibitor concentration at 50% inhibition, [L]50 is free labeled ligand concentration at 50% inhibition, [P]0 is free protein concentration at 0% inhibition, and Kd is the dissociation constant of the protein-ligand complex.

Mcl-1 = biological target: T2, Mcl-1 (Homo sapiens, UniProt Q07820); assay: Mcl-1/Bim fluorescence polarization assay (FPA); details: BIM BH3 peptide 5 nM, Mcl-1 28 nM, Ki calculated from FPA data
T2 construct: without their C-terminal transmembrane domain; GST; made in house
T2 sequence (Q07820 1-327 limits assumed): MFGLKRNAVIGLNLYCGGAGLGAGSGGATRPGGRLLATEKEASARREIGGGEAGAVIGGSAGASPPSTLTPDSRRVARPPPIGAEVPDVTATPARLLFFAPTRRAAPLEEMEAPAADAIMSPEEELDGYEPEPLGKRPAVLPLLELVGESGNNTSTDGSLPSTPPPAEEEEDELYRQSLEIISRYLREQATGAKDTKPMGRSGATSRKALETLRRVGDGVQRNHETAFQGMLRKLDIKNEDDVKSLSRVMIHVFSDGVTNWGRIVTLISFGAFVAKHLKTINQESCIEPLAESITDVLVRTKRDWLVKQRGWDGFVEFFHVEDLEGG
Description: as §1, §2, §3

Bcl-2 = biological target: T3, Bcl-2 (Homo sapiens, UniProt P10415); assay: Bcl2/Bim fluorescence polarization assay (FPA); details: BIM BH3 peptide 5 nM, Bcl-2 11 nM, Ki calculated from FPA data
T3 construct: without their C-terminal transmembrane domain; GST; made in house
T3 sequence (P10415 1-211 limits assumed): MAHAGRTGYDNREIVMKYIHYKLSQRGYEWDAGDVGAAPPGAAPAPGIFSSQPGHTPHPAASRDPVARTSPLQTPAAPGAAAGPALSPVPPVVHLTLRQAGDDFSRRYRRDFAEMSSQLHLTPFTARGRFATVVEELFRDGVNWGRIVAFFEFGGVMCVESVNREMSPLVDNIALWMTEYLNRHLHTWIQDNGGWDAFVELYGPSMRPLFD
Description: as §1, §2, §3

Ki (Bcl-b)	Ki (Mcl-1)	Ki (Bcl-2)	Structure (SMILES)
50 nM	20 nM	20 nM	O=C(NCc1cccc(CN(Cc2ccc(F)cc2)S(=O)(=O)c2cc(Cl)cc(Cl)c2O)c1)c1cc(O)nc(O)c1 [Example 2, N-(3-((3,5-Dichloro-N-(4-fluorobenzyl)-2-hydroxyphenylsulfonamido)methyl)benzyl)-2,6-dihydroxyisonicotinamide]
280 nM	60 nM	60 nM	N#Cc1ccc(S(=O)(=O)NCc2cccc(CN(Cc3ccc(-c4ccccc4)cc3)S(=O)(=O)c3cc(Cl)cc(Cl)c3O)c2)cc1 [Example 4, N-(Biphenyl-4-ylmethyl)-3,5-dichloro-N-(3-((4-cyanophenylsulfonamido)methyl)benzyl)-2-hydroxybenzenesulfonamide]
100 nM	40 nM	10 nM	Cc1ccc(S(=O)(=O)N(Cc2cc(CN(Cc3ccc(F)cc3)S(=O)(=O)c3cc(Cl)cc(Cl)c3O)cc(Oc3ccc(F)cc3)c2)CC(C)C)cc1 [Example 8, 3,5-Dichloro-N-(4-fluorobenzyl)-N-(3-(4-fluorophenoxy)-5-((N-isobutyl-4-methylphenylsulfonamido)methyl)benzyl)-2-hydroxybenzenesulfonamide]
90 nM	30 nM	20 nM	Cc1ccc(S(=O)(=O)N(Cc2ccc(F)cc2)Cc2cc(CNS(=O)(=O)c3cc(Cl)cc(Cl)c3O)cc(-c3ccc(F)cc3)c2)cc1 [Example 13, 3,5-Dichloro-N-((4′-fluoro-5-((N-(4-fluorobenzyl)-4-methylphenylsulfonamido)methyl)biphenyl-3-yl)methyl)-2-hydroxybenzenesulfonamide]
80 nM	10 nM	10 nM	CC(C)CN(Cc1cc(Cl)cc(CN(CC(C)C)S(=O)(=O)c2cc(Cl)cc(Cl)c2O)c1)S(=O)(=O)c1cccnc1 [Example 15]
289 nM	207 nM	153 nM	COc1ccc(S(N)(=O)=O)cc1C(=O)NCc1cccc(CN(Cc2ccc(-c3ccccc3)cc2)S(=O)(=O)c2cc(Cl)cc(Cl)c2O)c1 [Example 39, N-(3-((N-(biphenyl-4-ylmethyl)-3,5-dichloro-2-hydroxyphenyl-sulfonamido)methyl)benzyl)-2-methoxy-5-sulfamoylbenzamide]
138 nM	204 nM	347 nM	O=C(O)c1ccc(S(=O)(=O)NCc2cccc(CN(Cc3ccc(-c4ccccc4)cc3)S(=O)(=O)c3cc(Cl)cc(Cl)c3O)c2)cc1 [Example 49, 4-(N-(3-((N-(biphenyl-4-ylmethyl)-3,5-dichloro-2-hydroxyphenyl-sulfonamido)methyl)benzyl)sulfamoyl)benzoic acid]
103 nM	187 nM	148 nM	CS(=O)(=O)c1ccc(CN(Cc2cccc(CNS(=O)(=O)c3cc(Cl)cc(Cl)c3O)c2)S(=O)(=O)c2cc(Cl)cc(Cl)c2O)cc1 [Example 56, 3,5-dichloro-N-(3-((3,5-dichloro-2-hydroxyphenyl-sulfonamido)methyl)benzyl)-2-hydroxy-N-(4-(methylsulfonyl)benzyl) benzenesulfonamide]
133 nM	1020 nM	500 nM	CCN(CC)CCOc1ccc(CN(Cc2cccc(CNS(=O)(=O)c3cc(Cl)cc(Cl)c3O)c2)S(=O)(=O)c2cc(Cl)cc(Cl)c2O)cc1 [Example 61, 3,5-dichloro-N-(3-((3,5-dichloro-2-hydroxyphenylsulfonamido)methyl)benzyl)-N-(4-(2-(diethylamino)ethoxy)benzyl)-2-hydroxybenzenesulfonamide]
74 nM	169 nM	96 nM	O=S(=O)(NCc1cccc(CN(Cc2ccccc2SC(F)(F)F)S(=O)(=O)c2cc(Cl)cc(Cl)c2O)c1)c1cc(Cl)cc(Cl)c1O [Example 64]
247 nM	970 nM	469 nM	CC(C)CN(Cc1cc(Cl)cc(CN(CC(C)C)S(=O)(=O)c2cc(Cl)cc(Cl)c2O)c1)C(=O)c1ccc(SC(F)(F)F)cc1 [Example 71, N-(3-chloro-5-((3,5-dichloro-2-hydroxy-N-isobutylphenylsulfonamido)methyl)benzyl)-N-isobutyl-4-(trifluoromethylthio)benzamide]
182 nM	1150 nM	349 nM	CC(C)CN(Cc1cc(Cl)cc(CN(CC(C)C)S(=O)(=O)c2cc(Cl)cc(Cl)c2O)c1)C(=O)c1cccc(SC(F)(F)F)c1 [Example 72, N-(3-chloro-5-((3,5-dichloro-2-hydroxy-N-isobutylphenylsulfonamido)methyl)benzyl)-N-isobutyl-3-(trifluoromethylthio)benzamide]
144 nM	384 nM	319 nM	CC(C)CN(Cc1cc(Cl)cc(CN(CC(C)C)S(=O)(=O)c2cc(Cl)cc(Cl)c2O)c1)C(=O)c1cccc(S(=O)(=O)C(F)(F)F)c1 [Example 73, N-(3-chloro-5-((3,5-dichloro-2-hydroxy-N-isobutylphenylsulfonamido)methyl)benzyl)-N-isobutyl-3-(trifluoromethylsulfonyl)benzamide]
77 nM	194 nM	133 nM	CS(=O)(=O)c1cccc(CN(Cc2cc(CNC(=O)c3cccc(Oc4ccccc4)c3)cc(Oc3ccc(F)cc3)c2)S(=O)(=O)c2cc(Cl)cc(Cl)c2O)c1 [Example 77, N-(3-((3,5-dichloro-2-hydroxy-N-(3-(methylsulfonyl)benzyl)phenylsulfonamido)methyl)-5-(4-fluorophenoxy)benzyl)-3-phenoxybenzamide]
33 nM	52 nM	42 nM	O=S(=O)(c1cc(Cl)cc(Cl)c1)N(Cc1ccc(F)cc1)Cc1cccc(CN(Cc2ccc(F)cc2)S(=O)(=O)c2cc(Cl)cc(Cl)c2O)n1 [Example 91, 3,5-dichloro-N-((6-((3,5-dichloro-N-(4-fluorobenzyl)phenylsulfonamido)methyl)pyridin-2-yl)methyl)-N-(4-fluorobenzyl)-2-hydroxybenzenesulfonamide]
12 nM	60 nM	46 nM	O=S(=O)(c1cc(Cl)cc(Cl)c1)N(Cc1ccc(F)cc1)Cc1cccc(CN(Cc2ccc(F)cc2)S(=O)(=O)c2cc(Cl)cc(Cl)c2O)[n+]1[O-] [Example 92, 2-((3,5-dichloro-N-(4-fluorobenzyl)-2-hydroxyphenylsulfonamido)methyl)-6-((3,5-dichloro-N-(4-fluorobenzyl)phenylsulfonamido)methyl)pyridine 1-oxide]
40 nM	60 nM	60 nM	O=S(=O)(c1cccc(CN(Cc2ccc(F)cc2)S(=O)(=O)c2cc(Cl)cc(Cl)c2O)c1)N(Cc1ccc(F)cc1)Cc1cc(Cl)cc(Cl)c1 [Example 94, 3,5-Dichloro-N-(3-(N-(3,5-dichlorobenzyl)-N-(4-fluorobenzyl)sulfamoyl)benzyl)-N-(4-fluorobenzyl)-2-hydroxybenzenesulfonamide]
60 nM	70 nM	120 nM	O=C(c1cccc(CN(Cc2ccc(F)cc2)S(=O)(=O)c2cc(Cl)cc(Cl)c2O)c1)N(Cc1ccc(F)cc1)Cc1cc(Cl)cc(Cl)c1 [Example 95, 3-((3,5-Dichloro-N-(4-fluorobenzyl)-2-hydroxyphenylsulfonamido)methyl)-N-(3,5-dichlorobenzyl)-N-(4-fluorobenzyl)benzamide]
